# In US20110059475A1, “STABILISATION OF BLOOD CELL CONJUGATES” (THE UNIVERSITY OF NOTTINGHAM, priority 2008, published 2011):
# “Also recorded” adds a separate entry of the source.
# Key:
# [1] = tested on: platelets; assay: Whole blood platelet aggregation: flow cytometric single platelet count in fixed and stabilised citrate-anticoagulated blood; type: cell-based
# Excerpt: Referring to FIG. 1, there are illustrated dot plots by which the number of single platelets may be quantified. Once the number of single platelets has been determined, it is then possible to calculate the percentage degree of platelet aggregation. Quantification of single platelets in whole blood by flow cytometry required 50,000 red cell events which were collected in region P1 on a forward scatter/side scatter plot, as shown in FIG. 1a. CD42a fluorescence was plotted against forward scatter, and region P2 was selected by drawing a curved line to include all platelet-related events and excluding erythrocyte/platelet co-incidences marked “e/p”, as shown in FIG. 1b. EDTA-anti-coagulated blood, or citrate anti-coagulated blood containing EDTA thus containing unstimulated platelets, was used to set three rectangular gates to quantitate microparticles (P3), single platelets (P4), and microaggregates (P5). These gates were then applied to the dot plots obtained for stimulated samples of blood, recording single platelets in P4. An example of results from an ADP-stimulated, fixed sample in which the single platelet events (P4) reduced from 1716 to 182 (indicating the formation of platelet aggregates) is shown in FIGS. 1d, 1e and 1f.
# Fixed and stabilised blood samples were mixed gently by repeated inversion of the sample tubes. 100 μl of the fixed blood was placed in a flow cytometry tube and centrifuged at 380 g for 5 minutes after which 90 μl of the supernatant is removed. The remaining 10 μl of fixed blood was then incubated with 10 μl of a 1 in 10 dilution of CD42a-FITC-labelled antibody for 20 min at 4° C. in the FACS tubes. 1 ml of FACSflow (or any other flow cytometry diluent) was added to the tubes immediately prior to reading on any flow cytometer equipped with a laser operating at an excitation wavelength of 488 nm and with detectors for measurement at suitable wavelengths for the selected fluorochromes (ie FITC). Appropriate software was used to acquire and analyse data on dot plots of forward scatter versus side scatter and forward scatter versus FITC fluorescence acquired with logarithmic amplification. Acquisition was stopped after recording 50,000 erythrocyte events. A sample of fixed unstimulated EDTA-anti-coagulated blood was used to set the vertical lines of three square gates P3, P4 and P5 on a forward scatter versus FITC fluorescence plot. These gates were adjusted to record microparticles in P3, single platelets in P4 and any microaggregates in P5 (see Example 2). The test samples are then analysed using the same gates. Larger aggregates would not be detected by the flow cytometer since they would be too large and cannot pass through the sample tube of the machine.
# The single platelet count described above is a record of the number of single platelets present in each blood sample (recorded as single platelet events, ie the number of single platelets passing the laser) in relation to 50,000 erythrocyte events recorded, ie erythrocytes passing the laser. It is possible to calculate a true platelet count by using standard flow cytometry counting beads, such as those sold under the trade name Trucount. Aggregation is usually determined as a percentage, and in whole blood this may be recorded as a percentage fall in single platelets. […] It is therefore possible to calculate percentage aggregation directly from the recordings of single platelet events using the following formula:—
# Where “EDTA count” is the number of platelet events (ie single platelets passing the laser) for a sample containing EDTA which has been fixed in the same way as the test samples, and where “Sample count” is the number of platelet events for the fixed test sample. […]
# [2] = tested on: platelet-monocyte conjugates; assay: Platelet-monocyte conjugates by flow cytometry (CD14 with CD42a or CD62P) in fixed and stabilised blood; type: cell-based; conditions: after incubation with collagen
# Procedure: (§1) For example, fixed and stabilised samples are removed from the fridge and mixed well until the sedimented cells are fully re-suspended. 500 μl of each sample is then dispensed into appropriately labelled flow cytometry tubes and centrifuged for 10 min at 380 g. 450 μl of the supernatant is then removed, taking care not to disturb the red blood cell pellet. 10 μl of saturating concentrations of CD14-APCCy7 (used to distinguish monocytes and neutrophils) and CD42a-FITC or CD62P-PE (used to identify platelets bound to either monocytes or neutrophils) is then added to the tubes and incubated with the cells in the dark. After 25 minutes, 1 ml of Erythrolyse solution (AbD Serotec, Oxford, UK) is added to the cells and left to stand for 10 minutes to lyse any red blood cells. 1 ml of FACSflow is added and the cells centrifuged at 380 g. Supernatants are decanted and cells re-suspended in 2 ml of FACSflow to wash the cells. The cells are then centrifuged at 380 g again, the supernatant removed and the cells finally re-suspended in 300 μl of FACSflow to await reading on the flow cytometer.
# (§2) Leukocytes are initially identified by logical gating from dot plots of forward scatter (cell size) and side scatter (cell granularity) profiles acquired with linear amplification. Fluorescence parameters are acquired with logarithmic amplification and 30,000 leukocyte events are collected for each blood sample. […] Lymphocytes may also be identified by CD14 negativity and a low forward scatter/side scatter profile, but platelet-lymphocyte conjugates are formed to a lesser extent and are not routinely quantitated. Platelet-monocyte and platelet-neutrophil conjugates are quantified as the percentage of monocytes or neutrophils expressing platelet CD42a or CD62P fluorescence in an interval gate which may be adjusted using an appropriate IgG control in each case. Median fluorescence values for CD42a or CD62P are also measured for each population of leukocytes tested. […]
# [3] = tested on: platelet-neutrophil conjugates; assay: Platelet-neutrophil conjugates by flow cytometry (CD14 with CD42a or CD62P) in fixed and stabilised blood; type: cell-based; conditions: after incubation with collagen
# Procedure: as §1, §2
# Referring to FIG. 10, there are shown dot plots used for the identification of platelet-leukocyte conjugates in fixed and stabilised blood samples following incubation with (a) saline, or (b) collagen. […] Platelet-monocyte and platelet-neutrophil conjugate formation following stimulation with collagen is seen as a shift to the right in plot (iii) as the degree of platelet-specific CD42a fluorescence (ie marker expression) increases.
# Referring to FIG. 12, there is shown the quantification of platelet-neutrophil conjugates (identified from gates P1 and P4 as shown in FIG. 10) which are detected with the platelet-specific markers CD42a or CD62P. […]
# [4] = tested on: platelets; assay: ADP-induced platelet aggregation in blood of volunteers before and after treatment with clopidogrel or clopidogrel plus aspirin; conditions: ADP 10 μM stimulant tube, citrate blood, percentage of EDTA sample
compound,measurement,setting,value
"Nc1ncnc2c1ncn2[C@@H]1O[C@H](COP(=O)(O)OP(=O)(O)O)[C@@H](O)[C@H]1O [ADP, adenosine diphosphate]",aggregation (percentage fall in single platelets),"[1]; 1 μM ADP, stirred 4 minutes",27%
same,aggregation (percentage fall in single platelets),"[1]; 3 μM ADP, stirred 4 minutes",62%
same,aggregation (percentage fall in single platelets),"[1]; 10 μM ADP, stirred 4 minutes",89%
same,single platelet events (P4),"[1]; ADP-stimulated fixed sample, per 50,000 red cell events, unstimulated 1716",182
"CCCCC/C=C\C/C=C\C/C=C\C/C=C\CCCC(=O)O [AA, arachidonic acid]",degree of aggregation (percentage fall in single platelets),"[1]; 200 nM arachidonic acid, same donor, citrate-anticoagulated blood",54%
collagen,single platelet events in P4 (sample count),"[1]; collagen 1 μg/ml, 4 minutes, per 50,000 erythrocyte events, EDTA count 1118",693
same,degree of aggregation (percentage fall in single platelets compared with EDTA sample),"[1]; collagen 1 μg/ml, stirred 4 minutes, citrate-anticoagulated blood",about 38%
same,"platelet-monocyte conjugates, percentage of parent monocyte population (CD42a, % gated)",[2]; saline 8.2,64.1%
same,"platelet-monocyte conjugates, percentage of parent monocyte population (CD62P, % gated)",[2]; saline 9.3,98.7%
same,CD42a median fluorescence of monocyte population,[2]; saline 259,832 arbitrary units
same,"platelet-neutrophil conjugates, percentage of parent neutrophil population (CD62P, % gated)",[3]; saline 7.3,72.1%
same,"platelet-neutrophil conjugates, percentage of parent neutrophil population (CD42a, % gated)",[3]; saline 7.9,21.9%
same,CD62P median fluorescence of neutrophil population,[3]; saline 141,688
same,CD42a median fluorescence of neutrophil population,[3]; saline 142,201
Thrombin Receptor Activating Peptide [TRAP],degree of aggregation (percentage fall in single platelets),"[1]; 10 μM TRAP, same donor, citrate-anticoagulated blood",89%
Platelet Activating Factor [PAF],degree of aggregation (percentage fall in single platelets),"[1]; 3 μM PAF, same donor, citrate-anticoagulated blood",70%
CC(=O)Oc1ccccc1C(=O)O [aspirin],effect on collagen-induced platelet aggregation,"[1]; collagen 1, 2, 3, 4 μg/ml for 10 minutes, presence vs absence of aspirin, three donors",significantly reducing the amount of aggregation
CCCCC[C@H](O)/C=C/[C@@H]1[C@@H](C/C=C\CCCC(=O)O)[C@H]2CO[C@@H]1C2 [U46619],degree of aggregation (percentage fall in single platelets),"[1]; 1 μM U46619, same donor, citrate-anticoagulated blood",96%
COC(=O)[C@H](c1ccccc1Cl)N1CCc2sccc2C1 [clopidogrel],platelet aggregation after treatment compared with before treatment,[4],less aggregation; also recorded: inhibited
